In ChEMBL document CHEMBL3390848, “Affinity selection and sequence-activity relationships of HIV-1 membrane fusion inhibitors directed at the drug-resistant variants” (Medchemcomm, 2010) one finds EC50, Activity and Tm data, which are given here for 7 molecules.

Assay [1] deals with Human immunodeficiency virus 1. The experiment in a line: Antiviral activity against HIV1 NL4-3 harboring gp41 D36G mutant infected in human HeLa cells expressing CD4-LTR-beta-gal assessed as inhibition of viral replication after 48 hrs by MAGI assay. The class given is functional, organism-based.
Assay [2] deals with Human immunodeficiency virus 1. The experiment in a line: Binding affinity to HIV1 His-tagged N-terminal heptad repeat of envelope glycoprotein gp41 assessed as recovery of N36-drug complex at 6 uM after 2 hrs by LC-MS analysis.
For assay [3], the system named is Human immunodeficiency virus 1. Briefly: Binding affinity to HIV1 His-tagged N-terminal heptad repeat of envelope glycoprotein gp41 assessed as recovery of N36-drug complex at 1 uM after 2 hrs by LC-MS analysis.
The test system of assay [4] is Human immunodeficiency virus 1. The experiment in a line: Binding affinity to HIV1 His-tagged N-terminal heptad repeat of envelope glycoprotein gp41 assessed as recovery of N36-drug complex at 10 uM after 2 hrs by LC-MS analysis.
Assay [5] deals with Human immunodeficiency virus 1. Briefly: Binding affinity to HIV1 His-tagged N-terminal heptad repeat of envelope glycoprotein gp41 assessed as recovery of N36-drug complex at 0.6 uM after 2 hrs by LC-MS analysis.
Assay [6] relates to Human immunodeficiency virus 1. Briefly: Thermal stability of HIV1 envelope glycoprotein gp41 His-tagged N-terminal heptad repeat N36-drug complex assessed as thermal unfolding transition state by measuring molar ellipticity at 4 to 90 degC by circular dichroic spectra analysis.
In assay [7] the test system is Human immunodeficiency virus 1. Briefly: Binding affinity to HIV1 His-tagged N-terminal heptad repeat of envelope glycoprotein gp41 assessed as recovery of N36-drug complex after 2 hrs by LC-MS analysis. More on the design: concentration or dose not given beside the values.

One may read the EC50 as the concentration that produces a half-maximal response. As usually defined, the Tm is the temperature at which the thermal transition is half complete.

Molecules are shown by their SMILES. Residues, ends and D or L forms follow the SMILES beside them.

For `CC[C@H](C)[C@H](NC(=O)[C@H](CC(C)C)NC(=O)[C@H](CCC(=O)O)NC(=O)[C@H](CCC(=O)O)NC(=O)[C@@H](NC(=O)[C@H](CCCCN)NC(=O)[C@H](CCCCN)NC(=O)[C@@H](NC(=O)[C@H](Cc1ccc(O)cc1)NC(=O)[C@H](CCC(=O)O)NC(=O)[C@H](CCC(=O)O)NC(=O)[C@@H](NC(=O)[C@H](CCCCN)NC(=O)[C@H](CCCCN)NC(=O)[C@H](CC(=O)O)NC(=O)[C@H](Cc1c[nH]c2ccccc12)NC(=O)[C@H](CCC(=O)O)NC(=O)[C@H](CCC(=O)O)NC(=O)[C@H](Cc1c[nH]c2ccccc12)NC(C)=O)[C@@H](C)CC)[C@@H](C)O)[C@@H](C)CC)C(=O)N[C@@H](CCCCN)C(=O)N[C@@H](CCCCN)C(=O)N[C@@H](Cc1ccc(O)cc1)C(=O)N[C@@H](CCC(=O)O)C(=O)N[C@@H](CCC(=O)O)C(=O)N[C@@H](CCC(N)=O)C(=O)N[C@@H](CCC(N)=O)C(=O)N[C@@H](CCCCN)C(=O)N[C@@H](CCCCN)C(=O)N[C@@H](CC(N)=O)C(=O)N[C@@H](CCC(=O)O)C(=O)N[C@@H](CCC(=O)O)C(=O)N[C@@H](CCC(=O)O)C(=O)N[C@@H](CC(C)C)C(=O)N[C@@H](CCCCN)C(=O)N[C@@H](CCCCN)C(N)=O` (Ac-WEEWDKKIEEYTKKIEELIKKYEEQQKKNEEELKK-NH2), the 50% effective concentration (EC50) in assay [1] is 1.9 nM. Also, the Activity stood at 0.4% in assay [2], 2.3% in assay [3], 0.5% in assay [4] and 5.9% in assay [5]. Moreover, the Tm in assay [6] was found to be 68 °C.
For `CC[C@H](C)[C@H](NC(=O)[C@H](CC(C)C)NC(=O)[C@H](CCC(=O)O)NC(=O)[C@H](CCC(=O)O)NC(=O)[C@@H](NC(=O)[C@H](CCCCN)NC(=O)[C@H](CCCCN)NC(=O)[C@@H](NC(=O)[C@H](Cc1ccc(O)cc1)NC(=O)[C@H](CCC(=O)O)NC(=O)[C@H](CCC(=O)O)NC(=O)[C@@H](NC(=O)[C@H](CCCCN)NC(=O)[C@H](CCCCN)NC(=O)[C@H](CC(=O)O)NC(=O)[C@H](Cc1c[nH]c2ccccc12)NC(=O)[C@H](CCC(=O)O)NC(=O)[C@H](CCC(=O)O)NC(=O)[C@H](Cc1c[nH]c2ccccc12)NC(C)=O)[C@@H](C)CC)[C@@H](C)O)[C@@H](C)CC)C(=O)N[C@@H](CCCCN)C(=O)N[C@@H](CCCCN)C(=O)N[C@@H](CO)C(=O)N[C@@H](CCC(=O)O)C(=O)N[C@@H](CCC(=O)O)C(=O)N[C@H](C(=O)N[C@@H](CCC(N)=O)C(=O)N[C@@H](CCCCN)C(=O)N[C@@H](CCCCN)C(=O)N[C@@H](CC(N)=O)C(=O)N[C@@H](CCC(=O)O)C(=O)N[C@@H](CCC(=O)O)C(=O)N[C@@H](CCC(=O)O)C(=O)N[C@@H](CC(C)C)C(=O)N[C@@H](CCCCN)C(=O)N[C@@H](CCCCN)C(N)=O)C(C)C` (Ac-WEEWDKKIEEYTKKIEELIKKSEEVQKKNEEELKK-NH2), the concentration for a half-maximal effect (EC50) in assay [1] was determined as 2.2 nM. In addition, the Activity in assay [7] came to 6.2%. Further, the Tm in assay [6] came to 77.7 °C.
For `CC[C@H](C)[C@H](NC(=O)[C@H](CC(C)C)NC(=O)[C@H](CCC(=O)O)NC(=O)[C@H](CCC(=O)O)NC(=O)[C@@H](NC(=O)[C@H](CCCCN)NC(=O)[C@H](CCCCN)NC(=O)[C@@H](NC(=O)[C@H](Cc1ccc(O)cc1)NC(=O)[C@H](CCC(=O)O)NC(=O)[C@H](CCC(=O)O)NC(=O)[C@@H](NC(=O)[C@H](CCCCN)NC(=O)[C@H](CCCCN)NC(=O)[C@H](CC(=O)O)NC(=O)[C@H](Cc1c[nH]c2ccccc12)NC(=O)[C@H](CCC(=O)O)NC(=O)[C@H](CCC(=O)O)NC(=O)[C@H](Cc1c[nH]c2ccccc12)NC(C)=O)[C@@H](C)CC)[C@@H](C)O)[C@@H](C)CC)C(=O)N[C@@H](CCCCN)C(=O)N[C@@H](CCCCN)C(=O)N[C@@H](CO)C(=O)N[C@@H](CCC(=O)O)C(=O)N[C@@H](CCC(=O)O)C(=O)N[C@@H](CCC(=O)O)C(=O)N[C@@H](CCC(N)=O)C(=O)N[C@@H](CCCCN)C(=O)N[C@@H](CCCCN)C(=O)N[C@@H](CC(N)=O)C(=O)N[C@@H](CCC(=O)O)C(=O)N[C@@H](CCC(=O)O)C(=O)N[C@@H](CCC(=O)O)C(=O)N[C@@H](CC(C)C)C(=O)N[C@@H](CCCCN)C(=O)N[C@@H](CCCCN)C(N)=O` (Ac-WEEWDKKIEEYTKKIEELIKKSEEEQKKNEEELKK-NH2), in that order: 2.4 nM, 4.3% and 76.2 °C.
On the same counts, the results for `CC[C@H](C)[C@H](NC(=O)[C@H](CC(C)C)NC(=O)[C@H](CCC(=O)O)NC(=O)[C@H](CCC(=O)O)NC(=O)[C@@H](NC(=O)[C@H](CCCCN)NC(=O)[C@H](CCCCN)NC(=O)[C@@H](NC(=O)[C@H](Cc1ccc(O)cc1)NC(=O)[C@H](CCC(=O)O)NC(=O)[C@H](CCC(=O)O)NC(=O)[C@@H](NC(=O)[C@H](CCCCN)NC(=O)[C@H](CCCCN)NC(=O)[C@H](CC(=O)O)NC(=O)[C@H](Cc1c[nH]c2ccccc12)NC(=O)[C@H](CCC(=O)O)NC(=O)[C@H](CCC(=O)O)NC(=O)[C@H](Cc1c[nH]c2ccccc12)NC(C)=O)[C@@H](C)CC)[C@@H](C)O)[C@@H](C)CC)C(=O)N[C@@H](CCCCN)C(=O)N[C@@H](CCCCN)C(=O)N[C@@H](CO)C(=O)N[C@@H](CCC(=O)O)C(=O)N[C@@H](CCC(=O)O)C(=O)N[C@@H](Cc1ccc(O)cc1)C(=O)N[C@@H](CCC(N)=O)C(=O)N[C@@H](CCCCN)C(=O)N[C@@H](CCCCN)C(=O)N[C@@H](CC(N)=O)C(=O)N[C@@H](CCC(=O)O)C(=O)N[C@@H](CCC(=O)O)C(=O)N[C@@H](CCC(=O)O)C(=O)N[C@@H](CC(C)C)C(=O)N[C@@H](CCCCN)C(=O)N[C@@H](CCCCN)C(N)=O` (Ac-WEEWDKKIEEYTKKIEELIKKSEEYQKKNEEELKK-NH2) are 2.2 nM, 5.5% and 76.3 °C.
For `CC[C@H](C)[C@H](NC(=O)[C@H](CC(C)C)NC(=O)[C@H](CCC(=O)O)NC(=O)[C@H](CCC(=O)O)NC(=O)[C@@H](NC(=O)[C@H](CCCCN)NC(=O)[C@H](CCCCN)NC(=O)[C@@H](NC(=O)[C@H](Cc1ccc(O)cc1)NC(=O)[C@H](CCC(=O)O)NC(=O)[C@H](CCC(=O)O)NC(=O)[C@@H](NC(=O)[C@H](CCCCN)NC(=O)[C@H](CCCCN)NC(=O)[C@H](CC(=O)O)NC(=O)[C@H](Cc1c[nH]c2ccccc12)NC(=O)[C@H](CCC(=O)O)NC(=O)[C@H](CCC(=O)O)NC(=O)[C@H](Cc1c[nH]c2ccccc12)NC(C)=O)[C@@H](C)CC)[C@@H](C)O)[C@@H](C)CC)C(=O)N[C@@H](CCCCN)C(=O)N[C@@H](CCCCN)C(=O)N[C@@H](CO)C(=O)N[C@@H](CCC(=O)O)C(=O)N[C@@H](CCC(=O)O)C(=O)N[C@H](C(=O)N[C@@H](CCC(N)=O)C(=O)N[C@@H](CCCCN)C(=O)N[C@@H](CCCCN)C(=O)N[C@@H](CC(N)=O)C(=O)N[C@@H](CCC(=O)O)C(=O)N[C@@H](CCC(=O)O)C(=O)N[C@@H](CCC(=O)O)C(=O)N[C@@H](CC(C)C)C(=O)N[C@@H](CCCCN)C(=O)N[C@@H](CCCCN)C(N)=O)[C@@H](C)O` (Ac-WEEWDKKIEEYTKKIEELIKKSEETQKKNEEELKK-NH2), in that order: 3.2 nM, 7.3% and 76.7 °C.
In the case of `CC[C@H](C)[C@H](NC(=O)[C@H](CC(C)C)NC(=O)[C@H](CCC(=O)O)NC(=O)[C@H](CCC(=O)O)NC(=O)[C@@H](NC(=O)[C@H](CCCCN)NC(=O)[C@H](CCCCN)NC(=O)[C@@H](NC(=O)[C@H](Cc1ccc(O)cc1)NC(=O)[C@H](CCC(=O)O)NC(=O)[C@H](CCC(=O)O)NC(=O)[C@@H](NC(=O)[C@H](CCCCN)NC(=O)[C@H](CCCCN)NC(=O)[C@H](CC(=O)O)NC(=O)[C@H](Cc1c[nH]c2ccccc12)NC(=O)[C@H](CCC(=O)O)NC(=O)[C@H](CCC(=O)O)NC(=O)[C@H](Cc1c[nH]c2ccccc12)NC(C)=O)[C@@H](C)CC)[C@@H](C)O)[C@@H](C)CC)C(=O)N[C@@H](CCCCN)C(=O)N[C@@H](CCCCN)C(=O)N[C@@H](CO)C(=O)N[C@@H](CCC(=O)O)C(=O)N[C@@H](CCC(=O)O)C(=O)N[C@@H](CCSC)C(=O)N[C@@H](CCC(N)=O)C(=O)N[C@@H](CCCCN)C(=O)N[C@@H](CCCCN)C(=O)N[C@@H](CC(N)=O)C(=O)N[C@@H](CCC(=O)O)C(=O)N[C@@H](CCC(=O)O)C(=O)N[C@@H](CCC(=O)O)C(=O)N[C@@H](CC(C)C)C(=O)N[C@@H](CCCCN)C(=O)N[C@@H](CCCCN)C(N)=O` (Ac-WEEWDKKIEEYTKKIEELIKKSEEMQKKNEEELKK-NH2), the EC50 in assay [1] was 2 nM. In addition, in assay [7], the Activity stood at 6%. The Tm in assay [6] stood at 80.2 °C.
On the same counts, the results for `CC[C@H](C)[C@H](NC(=O)[C@H](CC(C)C)NC(=O)[C@H](CCC(=O)O)NC(=O)[C@H](CCC(=O)O)NC(=O)[C@@H](NC(=O)[C@H](CCCCN)NC(=O)[C@H](CCCCN)NC(=O)[C@@H](NC(=O)[C@H](Cc1ccc(O)cc1)NC(=O)[C@H](CCC(=O)O)NC(=O)[C@H](CCC(=O)O)NC(=O)[C@@H](NC(=O)[C@H](CCCCN)NC(=O)[C@H](CCCCN)NC(=O)[C@H](CC(=O)O)NC(=O)[C@H](Cc1c[nH]c2ccccc12)NC(=O)[C@H](CCC(=O)O)NC(=O)[C@H](CCC(=O)O)NC(=O)[C@H](Cc1c[nH]c2ccccc12)NC(C)=O)[C@@H](C)CC)[C@@H](C)O)[C@@H](C)CC)C(=O)N[C@@H](CCCCN)C(=O)N[C@@H](CCCCN)C(=O)N[C@@H](CO)C(=O)N[C@@H](CCC(=O)O)C(=O)N[C@@H](CCC(=O)O)C(=O)N[C@@H](CCCNC(=N)N)C(=O)N[C@@H](CCC(N)=O)C(=O)N[C@@H](CCCCN)C(=O)N[C@@H](CCCCN)C(=O)N[C@@H](CC(N)=O)C(=O)N[C@@H](CCC(=O)O)C(=O)N[C@@H](CCC(=O)O)C(=O)N[C@@H](CCC(=O)O)C(=O)N[C@@H](CC(C)C)C(=O)N[C@@H](CCCCN)C(=O)N[C@@H](CCCCN)C(N)=O` (Ac-WEEWDKKIEEYTKKIEELIKKSEERQKKNEEELKK-NH2) are 2.5 nM, 7.6% and 71.5 °C.
